Measurements taken from article PMC7695167, “Targeting the Interaction between the SH3 Domain of Grb2 and Gab2” (Cells, 2020).

Target: T1, C-SH3 Grb2 (C-terminal SH3 domain of Grb2) (Homo sapiens, UniProt P62993)
T1 construct: isolated C-terminal SH3 domain, recombinant, expressed and purified as previously reported
Assay: tryptophan fluorescence, titration of preformed C-SH3:Gab2 peptide complex
Format: binding
Conditions: read-out: apparent inhibition constant

T1 sequence (P62993 159-217 limits assumed): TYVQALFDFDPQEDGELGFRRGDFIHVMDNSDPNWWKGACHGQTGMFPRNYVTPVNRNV

`CCOc1cc(CNCCc2ccc(OC)cc2)ccc1OCc1cccc(Cl)c1` [AN-465-J137-985, N-(4-((3-Chlorobenzyl)oxy)-3-ethoxybenzyl)-2-(4-methoxyphenyl)ethan-1-amine] gave a Ki of about 5 µM.
